The nature of series [1]: Single-dose pharmacokinetics and bioavailability after oral gavage administration of EK-ECP. In kind it is in vivo, male Sprague–Dawley rats. Conditions: for Cmax / Tmax / half-life / AUC(0-t) / bioavailability / AUC(0-inf) / MRT last / Vd/F: male, Sprague-Dawley, rat; for Tmax / Tlast: median (minimum-maximum); for fold increase in AUCTlast for a 1:10-fold increase in dose / fold increase in Cmax for a 1:10-fold increase in dose: PO 100 to 1000 mg/kg EK-ECP; for half-life / AUC(0-t): po; for bioavailability: 100 and 1000 mg/kg oral dose of EK-ECP versus IV 10 mg/kg, dose-corrected, read-out: Bioavailability following oral gavage administration; for Vd/F: read-out: Vz/F. How it is done:
EK-ECP was administered to male Sprague–Dawley rats by either IV bolus (Group 1, 10 mg/kg) or oral gavage (Groups 2, 3 or 4, at 10, 100 or 1000 mg/kg, respectively) administration. Blood collection intervals were pre dose (0), and 0.25, 0.5, 1, 2, 4, 6, 8, 12, 24 and 36 h post dose. Plasma samples were analyzed for concentrations of 8,8′-bieckol, dieckol, and PFF-A; all pre-dose sample results were less than the lower limit of quantitation (LLOQ < 1 ng/mL). The time profiles of the plasma concentrations of 8,8′-bieckol, dieckol, and PFF-A in individual animals are illustrated in Figure 4. The mean pharmacokinetic parameters and corresponding coefficient of variation (CV) following IV administration of 10 mg/kg EK-ECP to male rats are illustrated in Table 1. Those following oral administrations of 10, 100 and 1000 mg/kg EK-ECP to male rats are illustrated in Table 2.
Total of 20 male CD® [Crl:CD®(SD)] rats (approximately 11.5 weeks of age) obtained from Charles River Laboratories (Portage, MI, USA) were used in our study. These included five rats with both jugular and femoral vein cannulations, and 15 rats with jugular vein cannulations. Of the 20 animals received, 16 male rats were placed in the study, comprising four rats with both jugular and femoral vein cannulations, and 12 rats with jugular vein cannulations. The rats were housed in the Mattawan facility of MPI Research Inc (currently Charles River Laboratories, Mattawan, MI, USA). Animal welfare for this study was in compliance with the U.S. Department of Agriculture’s (USDA) Animal Welfare Act (9 CFR Parts 1, 2 and 3). This facility maintained an animal welfare assurance statement with the National Institutes of Health Office of Laboratory Animal Welfare. All procedures were approved before the study by the institutional animal care utilization committee. Animals were individually housed and fed a basal diet of Lab Diet Certified Rodent Diet #5002, PMI Nutrition International, Inc. Food and water was available ad libitum except during fasting periods, when food was withheld, and during any required restraint periods, when both food and water were withheld. Animal rooms were maintained at (20 ± 2) °C and (50 ± 20)% relative humidity with a 12 h light/dark cycle throughout the study.
For intravenous administration, EK-ECP was dissolved in 70/25/5 (v/v) phosphate-buffered saline (PBS)/propylene glycol/ethanol (pH 5.1 final concentration of 2 mg/mL) and stabilized at room temperature for 24 h. For oral administration, after an amount of EK-ECP appropriate to the final targeted formulation concentrations was weighed and placed in a bottle, a small amount of the vehicle (water for injection) was added and mixed using a vortex mixer and heated to between 60 to 70 °C until homogeneously suspended. Additional amounts of the vehicle were gradually added to yield the targeted EK-ECP concentrations (1, 10, and 100 mg/mL). Dosing occurred within 4 h after preparation completion. The individual constituent doses of dieckol, 8,8′-bieckol, and PFF-A in each dosing formulation were analyzed by RP-HPLC followed by interpolation of the corresponding area% to the calibration curve prepared with known concentrations of isolated standards. The animals were fasted for a minimum of 4 h prior to dosing and through the first 4 h of blood sample collection. Each animal in Group 1 received a single intravenous (IV) dose of the 10 mg/kg EK-ECP. The intravenous doses were administered as a slow bolus injection over 5 min through the femoral vein cannula. The cannula was flushed with approximately 0.3 mL of sterile 0.9% sodium chloride for injection, USP, immediately following dosing. Each animal in Groups 2, 3 and 4 received a single oral (PO) gavage dose of the appropriate test article formulation, as outlined Table 3. Oral gavage dosing formulations were continuously stirred throughout dosing. […]

The test system of another series is mouse-model. Further details: method as in PMID 16042079. The conditions noted are these: oral administration, mouse model ref 64; cited from earlier work.
The conditions of series [2]: stated in the discussion without data or reference; cited from earlier work.
Series [3] in a line: Stability at pH 2 by UV–Vis spectroscopy (gastric juice degradation). In kind it is physicochemical. Conditions: period of at least 5 h, unpublished data. The text has this:
To address the potential reduction in bioavailability due to degradation by gastric juice, we evaluated the stability of dieckol as a representative compound of phlorotannins at a pH of 2 using UV–Vis spectroscopy.

Another series concerns gut microbial ecosystem. Conditions: hydroethanolic extract of Silvetia compressa ref 73; cited from earlier work.
Where [4] appears, read: PO 1000 mg/kg EK-ECP (Group 4), PFF-A in a single rat.
[5] abbreviates: plasma, PO 1000 mg/kg EK-ECP (Group 4), mean (CV), PFF-A N = 1.
Where [6] appears, read: in vivo, PO 100 mg/kg EK-ECP, mean (CV).
The mark [7] stands for this setting: in vivo, PO 1000 mg/kg EK-ECP, mean (CV).
The mark [8] stands for this setting: plasma, PO 100 mg/kg EK-ECP, mean (CV).
Setting [9] is: plasma, PO 1000 mg/kg EK-ECP, mean (CV).

“Also recorded” adds a separate entry of the source. Read-outs that look alike come from different tables or passages of the source.

As for `Oc1cc(O)cc(Oc2c(O)cc(O)c3c2Oc2c(O)cc4oc5c(Oc6cc(O)cc(O)c6)c(O)cc(O)c5c4c2O3)c1` [PFF-A, phlorofucofuroeckol-A], the plasma concentrations entry in series [1] (PO 100 mg/kg EK-ECP (Group 3), LLOQ 1 ng/mL, 100 mg/kg) is listed as “below the lower limit of quantitation; also recorded: below the quantifiable limit”. Also, the “plasma concentrations quantifiable up to” value in series [1] (setting [4]) was found to be 1 h. The compound also registered a peak concentration (Cmax) in series [1] (setting [5]) of 1.58 ng/mL. The Tmax in series [1] (plasma, PO 1000 mg/kg EK-ECP) was 0.5 h. Besides, the “oral dose with CNS-directed effect (as low as)” value in the series on mouse-model is 0.2 mg/kg/bw. Besides, the solubility in water result in series [2] was “virtually insoluble in water”.
In the case of `Oc1cc(O)cc(Oc2c(O)cc(O)c3c2Oc2c(cc(O)c(-c4c(O)cc5c(c4O)Oc4c(Oc6cc(O)cc(O)c6)c(O)cc(O)c4O5)c2O)O3)c1` [8,8′-bieckol], the results for the “plasma concentrations quantifiable up to” value in series [1] (PO 100 mg/kg EK-ECP (Group 3)) and in series [1] (setting [4]) were 12 h and 36 h, respectively. Besides, the Tlast in series [1] (PO 100 mg/kg EK-ECP) is on record as 8 (8–12) h; in series [1] (PO 1000 mg/kg EK-ECP), 36 (36–36) h. In series [1] (PO 1000 mg/kg EK-ECP, mean (CV), ln(2)·MRTlast, 1000 mg/kg), the “Effective T1/2” value is reported as 4.11 (16) h. The “fold increase in AUCTlast for a 1:10-fold increase in dose” value in series [1] is listed as about 84 fold. For the same compound, in series [1], the “fold increase in Cmax for a 1:10-fold increase in dose” value is recorded as about 71 fold. Moreover, the half-life is 2.24 h in series [1] (in vivo, 100 mg/kg, PO 100 mg/kg EK-ECP, mean (CV), ln(2)·MRTlast, read-out: Effective T1/2 (converted)); 2.95 h in series [1] (in vivo, 100 mg/kg, PO 100 mg/kg EK-ECP, mean (CV), read-out: T1/2 (terminal half-life) (converted)); 4.41 h in series [1] (in vivo, 1000 mg/kg, PO 1000 mg/kg EK-ECP, mean (CV), ln(2)·MRTlast, read-out: Effective T1/2 (converted)); 6.63 h in series [1] (in vivo, 1000 mg/kg, PO 1000 mg/kg EK-ECP, mean (CV), read-out: T1/2 (terminal half-life) (converted)). Besides, the AUC(0-t) in series [1] (in vivo, 100 mg/kg, PO 100 mg/kg EK-ECP, mean (CV), read-out: AUC(0–24h)) is 41.5 ng·h/mL; in series [1] (in vivo, 100 mg/kg, PO 100 mg/kg EK-ECP, mean (CV), read-out: AUCTlast) it was 37.7 ng·h/mL; in series [1] (in vivo, 1000 mg/kg, PO 1000 mg/kg EK-ECP, mean (CV), read-out: AUC(0–24h)), 3050 ng·h/mL; in series [1] (in vivo, 1000 mg/kg, PO 1000 mg/kg EK-ECP, mean (CV), read-out: AUCTlast) it was 3170 ng·h/mL. In addition, the bioavailability in series [1] (in vivo) lay in the range of 0.069 to 0.5%. Besides, the maximum concentration (Cmax) came to 11.2 ng/mL in series [1] (in vivo, PO 100 mg/kg EK-ECP (Group 3), mean (CV)) and 795 ng/mL in series [1] (in vivo, PO 1000 mg/kg EK-ECP (Group 4), mean (CV), PFF-A N = 1). Further, the AUC(0-inf) in series [1] (setting [6]) was 44 ng·h/mL; in series [1] (setting [7]), 3210 ng·h/mL. In addition, the MRT last in series [1] (setting [6]) was found to be 3.23 h; in series [1] (setting [7]) it was 5.93 h. The Vd/F in series [1] (setting [6]) stood at 1060 L/kg; in series [1] (setting [7]), 342 L/kg. The Tmax in series [1] (in vivo, PO 100 mg/kg EK-ECP) was 0.25 to 4 h; in series [1] (in vivo, PO 1000 mg/kg EK-ECP) it was 0.5 h.
With `Oc1cc(O)cc(Oc2c(O)cc(O)c3c2Oc2c(O)cc(Oc4c(O)cc(Oc5c(O)cc(O)c6c5Oc5c(O)cc(O)cc5O6)cc4O)cc2O3)c1` [dieckol], the “plasma concentrations quantifiable up to” value in series [1] (PO 100 mg/kg EK-ECP (Group 3)) is 8 h; in series [1] (setting [4]) it was 36 h. For the same compound, the Tlast in series [1] (PO 100 mg/kg EK-ECP) was 8 (6–8) h; in series [1] (PO 1000 mg/kg EK-ECP) it was 36 (36–36) h. The “fold increase in AUCTlast for a 1:10-fold increase in dose” value in series [1] is reported as about 49 fold. Moreover, in series [1], the “fold increase in Cmax for a 1:10-fold increase in dose” value is given as about 41 fold. The half-life in series [1] (plasma, 100 mg/kg, PO 100 mg/kg EK-ECP, mean (CV), ln(2)·MRTlast, read-out: Effective T1/2 (converted)) is 2.36 h; in series [1] (plasma, 100 mg/kg, PO 100 mg/kg EK-ECP, mean (CV), read-out: T1/2 (terminal half-life) (converted)), 2.76 h; in series [1] (plasma, 1000 mg/kg, PO 1000 mg/kg EK-ECP, mean (CV), ln(2)·MRTlast, read-out: Effective T1/2 (converted)) it was 5.31 h; in series [1] (plasma, 1000 mg/kg, PO 1000 mg/kg EK-ECP, mean (CV), read-out: T1/2 (terminal half-life) (converted)), 6.61 h. Also, the AUC(0-t) stood at 27.2 ng·h/mL in series [1] (plasma, 100 mg/kg, PO 100 mg/kg EK-ECP, mean (CV), read-out: AUC(0–24h)); 24.3 ng·h/mL in series [1] (plasma, 100 mg/kg, PO 100 mg/kg EK-ECP, mean (CV), read-out: AUCTlast); 1130 ng·h/mL in series [1] (plasma, 1000 mg/kg, PO 1000 mg/kg EK-ECP, mean (CV), read-out: AUC(0–24h)); 1200 ng·h/mL in series [1] (plasma, 1000 mg/kg, PO 1000 mg/kg EK-ECP, mean (CV), read-out: AUCTlast). Also, the bioavailability in series [1] (plasma) fell in the range of 0.06 to 0.23%. Further, the Cmax in series [1] (plasma, PO 100 mg/kg EK-ECP (Group 3), mean (CV)) worked out at 6.67 ng/mL; in series [1] (setting [5]), 274 ng/mL. Further, the AUC(0-inf) in series [1] (setting [8]) is 31.4 ng·h/mL; in series [1] (setting [9]) it was 1230 ng·h/mL. In addition, the MRT last in series [1] (setting [8]) was 3.4 h; in series [1] (setting [9]), 7.67 h. The Vd/F in series [1] (setting [8]) worked out at 1160 L/kg; in series [1] (setting [9]), 768 L/kg. Also, the Tmax in series [1] (plasma, PO 100 mg/kg EK-ECP) is 0.5 to 4 h; in series [1] (plasma, PO 1000 mg/kg EK-ECP), 0.5 h. Further, the “stability at pH 2” value in series [3] is reported as “no significant changes”. The “oral dose with CNS-directed effect (as low as)” value with mouse-model is reported as 1.0 mg/kg/bw. Also, the metabolism during fermentation entry in the series with gut microbial ecosystem is listed as “metabolized within eight hours of fermentation”.

A word on the Cmax: it is the maximum level reached in the sampled fluid or tissue. For orientation: Tmax means the time at which the peak concentration occurs. What is called AUC(0-inf) is total exposure, with the tail of the curve extrapolated. Low values mean low exposure, high ones high exposure. One may read the MRT last as the average time that molecules of a dose stay in the body.

These data come from PMC11595589, “A Pharmacokinetic and Bioavailability Study of Ecklonia cava Phlorotannins Following Intravenous and Oral Administration in Sprague–Dawley Rats” (Marine Drugs, 2024).
